Laboratory results from paper PMC5053523, “In Vitro Antibacterial Activity of Rhodanine Derivatives against Pathogenic Clinical Isolates” (PLoS ONE, 2016).
Converted amounts (≈) assume the structure as drawn. Where two headings read alike, the source gives them in different places.

How the values were obtained:
MRSA USA300 = assay: MIC against MRSA USA300 with and without 4% human serum albumin; type: cell-based, Staphylococcus aureus; details: Staphylococcus aureus, read-out: MIC against MRSA USA300
Procedure, shortened: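 MIC measured in tryptic soy broth spiked with 4% HSA and without it, using CLSI broth microdilution on MRSA USA300. Value reported is the lowest concentration preventing bacterial growth.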

[1] = tested on: vancomycin resistant enterococci (VRE) E. faecium; assay: Broth microdilution MIC/MBC, VRE E. faecium; type: cell-based; details: for MIC: read-out: MIC
Pseudomonas aeruginosa = assay: MIC with/without PMBN, Pseudomonas aeruginosa; type: cell-based
Procedure, shortened: (§1)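 Read-out is the MIC, determined with sub-inhibitory colistin or polymixin B nonapeptide co-applied to permeabilize the outer membrane of Gram-negative bacteria.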

P. aeruginosa = assay: Broth microdilution MIC, P. aeruginosa; type: cell-based; details: Pseudomonas aeruginosa
K. pneumoniae = assay: Broth microdilution MIC, K. pneumoniae; type: cell-based
Klebsiella pneumoniae = assay: MIC with/without PMBN, Klebsiella pneumoniae; type: cell-based
Procedure, shortened: as §1

[2] = tested on: methicillin-resistant Staphylococcus aureus (MRSA); assay: Broth microdilution MIC/MBC, MRSA; type: cell-based
[3] = tested on: vancomycin resistant enterococci (VRE) E. faecalis; assay: Broth microdilution MIC/MBC, VRE E. faecalis; type: cell-based; details: for MIC: read-out: MIC
Acinetobacter baumannii = assay: MIC with/without sub-MIC colistin, Acinetobacter baumannii; type: cell-based
Procedure, shortened: as §1

Bacillus Strains = assay: Broth microdilution MIC50/MIC90 and MIC range, Bacillus strains panel; type: cell-based, Bacillus spp.; details: 10 Bacillus strains
Source text: The broth microdilution technique was used, followed by subculturing on agar plates that were rhodanine—free. […] The MICs reported represent the lowest concentration of each compound necessary to inhibit bacterial growth and the MBCs represent the lowest concentration required to reduce the initial bacterial inoculum by ≥ 99.9%.

Candida albicans = assay: MIC against Candida albicans; type: cell-based; details: table prints none, read-out: MIC
Clostridium difficile = assay: MIC against Clostridium difficile, anaerobic broth dilution; type: cell-based; details: Clostridioides difficile
Procedure, shortened: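 Clinical C. difficile isolates grown anaerobically 48 h at 37 °C, suspended to 0.5 McFarland and diluted 1:300 in pre-reduced supplemented Brain Heart Infusion broth. Compounds serially diluted; plates incubated anaerobically at 37 °C for 48 h. MIC = lowest concentration with no visible growth.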

[4] = E. faecium HM 968 Strain ERV102
[5] = E. faecium NR31914 Strain E0120
[6] = E. faecium Patient #1–1 NR-31903
[7] = E. faecalis NR31972 Strain SF 28073

O=C(O)[C@@H](Cc1ccccc1)N1C(=O)/C(=C/c2cccc(Oc3ccc(F)cc3)c2)SC1=S [Rh 4]
MIC (MRSA USA300; 24 h, Media TSB + 4% HSA): > 64 µM
MIC (MRSA USA300; Media TSB): 16 µM (≈ 7.67 µg/mL)
MBC ([1]; E. faecium E417 HM-965): > 64 µM
MIC ([1]; E. faecium E417 HM-965): 16 µM (≈ 7.67 µg/mL)
MBC ([1]; E. faecium E1071 NR-28978): 64 µM (≈ 30.7 µg/mL)
MIC ([1]; E. faecium E1071 NR-28978): 32 µM (≈ 15.3 µg/mL)
MBC [1, 4]: 64 µM (≈ 30.7 µg/mL)
MIC [1, 4]: 32 µM (≈ 15.3 µg/mL)
MBC [1, 5]: 64 µM (≈ 30.7 µg/mL)
MIC [1, 5]: 32 µM (≈ 15.3 µg/mL)
MBC [1, 6]: 64 µM (≈ 30.7 µg/mL)
MIC [1, 6]: 16 µM (≈ 7.67 µg/mL)
MIC (Pseudomonas aeruginosa; Pseudomonas aeruginosa ATCC 9721, PMBN (+) 4 μg/mL, read-out: MIC): >64 µM
MIC (Pseudomonas aeruginosa; Pseudomonas aeruginosa, ATCC9721): > 128 µM
MIC (P. aeruginosa; ATCC9721): > 128 µM
MIC (P. aeruginosa; ATCC15442): > 128 µM
MIC (K. pneumoniae; K. pneumoniae NR-15417): >128 µM
MIC (K. pneumoniae; Klebsiella pneumoniae): > 128 µM
MIC (Klebsiella pneumoniae; Klebsiella pneumoniae ATCC BAA 1706, PMBN (+) 4 μg/mL): >64 µM
MIC (Klebsiella pneumoniae; Klebsiella pneumoniae ATCC BAA 2146, PMBN (+) 4 μg/mL): >64 µM
MIC (Klebsiella pneumoniae; Klebsiella pneumoniae, BAA1706): > 128 µM
MIC (Klebsiella pneumoniae; Klebsiella pneumoniae, BAA2146): > 128 µM
MIC50 ([2]; 11 MRSA strains): 16 µM (≈ 7.67 µg/mL)
MIC90 ([2]; 11 MRSA strains): 32 µM (≈ 15.3 µg/mL)
MBC ([2]; MRSA NRS 1): 32 µM (≈ 15.3 µg/mL)
MIC ([2]; MRSA NRS 1): 16 µM (≈ 7.67 µg/mL)
MBC ([2]; MRSA NRS 19): 32 µM (≈ 15.3 µg/mL)
MIC ([2]; MRSA NRS 19): 16 µM (≈ 7.67 µg/mL)
MBC ([2]; MRSA NRS 37): 32 µM (≈ 15.3 µg/mL)
MIC ([2]; MRSA NRS 37): 32 µM (≈ 15.3 µg/mL)
MBC ([2]; MRSA NRS 107): 32 µM (≈ 15.3 µg/mL)
MIC ([2]; MRSA NRS 107): 16 µM (≈ 7.67 µg/mL)
MBC ([2]; MRSA NRS 119): 32 µM (≈ 15.3 µg/mL)
MIC ([2]; MRSA NRS 119): 16 µM (≈ 7.67 µg/mL)
MBC ([2]; MRSA NRS 382): 16 µM (≈ 7.67 µg/mL)
MIC ([2]; MRSA NRS 382): 16 µM (≈ 7.67 µg/mL)
MBC ([2]; MRSA NRS 383): 32 µM (≈ 15.3 µg/mL)
MIC ([2]; MRSA NRS 383): 32 µM (≈ 15.3 µg/mL)
MBC ([2]; MRSA NRS 384): 64 µM (≈ 30.7 µg/mL)
MIC ([2]; MRSA NRS 384): 16 µM (≈ 7.67 µg/mL)
MBC ([2]; MRSA NRS 385): 32 µM (≈ 15.3 µg/mL)
MIC ([2]; MRSA NRS 385): 16 µM (≈ 7.67 µg/mL)
MBC ([2]; MRSA NRS 386): > 64 µM
MIC ([2]; MRSA NRS 386): 16 µM (≈ 7.67 µg/mL)
MBC ([2]; MRSA NRS 387): 64 µM (≈ 30.7 µg/mL)
MIC ([2]; MRSA NRS 387): 16 µM (≈ 7.67 µg/mL)
MBC ([3]; E. faecalis ERV103 HM-934): 32 µM (≈ 15.3 µg/mL)
MIC ([3]; E. faecalis ERV103 HM-934): 32 µM (≈ 15.3 µg/mL)
MBC [3, 7]: 32 µM (≈ 15.3 µg/mL)
MIC [3, 7]: 32 µM (≈ 15.3 µg/mL)
MBC ([3]; E. faecalis R712 HM-335): 32 µM (≈ 15.3 µg/mL)
MIC ([3]; E. faecalis R712 HM-335): 16 µM (≈ 7.67 µg/mL)
MBC ([3]; E. faecalis S613 HM-334): 32 µM (≈ 15.3 µg/mL)
MIC ([3]; E. faecalis S613 HM-334): 32 µM (≈ 15.3 µg/mL)
MBC ([3]; E. faecalis TX0104 HM-201): 32 µM (≈ 15.3 µg/mL)
MIC ([3]; E. faecalis TX0104 HM-201): 32 µM (≈ 15.3 µg/mL)
MIC (Acinetobacter baumannii; Acinetobacter baumannii ATCC BAA747, colistin (+) […], read-out: MIC): >64 µM
MIC (Acinetobacter baumannii; Acinetobacter baumannii ATCC BAA19606, colistin (+) […], read-out: MIC): >64 µM
MIC (Acinetobacter baumannii; Acinetobacter baumannii, ATCCBAA747): > 128 µM
MIC (Acinetobacter baumannii; Acinetobacter baumannii, ATCCBAA19606): > 128 µM
MIC50 (Bacillus Strains): 8 µM (≈ 3.84 µg/mL)
MIC90 (Bacillus Strains): 16 µM (≈ 7.67 µg/mL)
MIC (Candida albicans; ATCC10231, C. albicans ATCC 10231, unit from abstract): > 64 µM
MIC (Candida albicans; C. albicans NR 29434, unit from abstract): > 64 µM
MIC (Candida albicans; C. albicans NR 29435, unit from abstract): > 64 µM
MIC (Candida albicans; C. albicans NR29437, unit from abstract): > 64 µM
MIC (Candida albicans; C. albicans NR29438, unit from abstract): > 64 µM
MIC (Candida albicans; C. albicans NR 29446, unit from abstract): 64 µM (≈ 30.7 µg/mL)
MIC (Candida albicans; C. albicans NR 29448, unit from abstract): > 64 µM
MIC (Candida albicans; C. albicans NR 29449, unit from abstract): > 64 µM
MIC (Candida albicans; C. albicans NR 29453, unit from abstract): > 64 µM
MIC (Candida albicans; C. albicans NR 294436, unit from abstract): > 64 µM
MIC (Clostridium difficile; C. difficile HM-88): 4 µM (≈ 1.92 µg/mL)
MIC (Clostridium difficile; C. difficile HM-745): 2 µM (≈ 0.959 µg/mL)
MIC (Clostridium difficile; C. difficile HM-746): 2 µM (≈ 0.959 µg/mL)
MIC (Clostridium difficile; C. difficile Isolate-1 NR-13427): 2 µM (≈ 0.959 µg/mL)
MIC (Clostridium difficile; C. difficile Toxigenic Strain P8 NR-32888): 4 µM (≈ 1.92 µg/mL)
